# In PubChem BioAssay AID624275 (Broad Institute, 2012):
# Activity calls are given as the source filed them. The rule behind the calls is not given here.
# Test system: CqsS sensor histidine kinase (Vibrio cholerae)
# Test: Light production inducers, absence of autoinducers, V. cholerae delta luxQ strain, confirmatory (AID 624275)
# Conditions: V. cholerae WN1103 delta luxQ, luciferase luminescence, 6 h
row,SMILES,AC40
1,O=C(Cc1ccc(-c2ccccc2)cc1)NC1CCCC1,118 nM
2,COc1ccccc1NC(=O)COC(=O)c1cc2c(s1)CCC2,184 nM
3,COc1ccccc1NC(=O)COC(=O)c1oc2ccccc2c1C,2010 nM
4,CCCn1nnnc1NCc1ccc(N(CC)CC)cc1,90.1 nM
5,CCCn1nnnc1NCc1ccc(N2CCCC2)cc1,29.2 nM
6,CCCn1nnnc1NCc1ccc(C(C)C)cc1,28.8 nM
7,Cc1ccc2cc3c(NC(=O)c4ccco4)nn(C)c3nc2c1,4220 nM
8,Cc1c(Cl)cccc1-n1cnc(=O)c2ccccc21,> 35000 nM (inactive)
9,COc1ccc(Cl)cc1NC(=O)COC(=O)c1ccc(C)o1,489 nM
10,O=c1ncn(-c2cccc(Cl)c2)c2ccccc12,29.4 nM
11,Cc1ccc(OCCNC(=O)c2cccc(C)c2)cc1,309 nM
12,COc1ccccc1NC(=O)COC(=O)c1ccc(C)cc1,2240 nM
13,CCC(C)NC(=O)Cc1ccc(-c2ccccc2)cc1 (stereo not given),1920 nM
14,CCn1nnnc1NCc1ccc(N2CCCC2)cc1,5.71 nM
15,O=C(Nc1nnc(-c2ccc3c(c2)OCCO3)o1)C1CCCCC1,2070 nM
16,CCOc1ccc(Nc2ccc3nonc3c2[N+](=O)[O-])cc1,596 nM

# Same assay, conditions: V. cholerae WN1103 delta luxQ, luciferase luminescence, 6 h; at 35 µM (top of the series)
row,SMILES,activation
1,CCCn1nnnc1NCc1ccccc1Cl,0.419% (inactive)
2,CCn1nnc(NCc2ccc(C)cc2)n1,0.153% (inactive)
3,Cc1ccc(CC(=O)NC2CCCC2)cc1,10.3% (inactive)
4,CCn1c(CC(=O)Nc2cccc(Cl)c2Cl)nnc1SCCOc1ccc(OC)cc1,0.37% (inactive)
